Structures can show the parent of a compound that is named as a salt. Where two headings read alike, the source gives them in different places.
What was measured:
[1] = system: HEL cells (human acute myelocytic leukemia cell lines); conditions: read-out: Cell-Growth Inhibition Test: HEL Cells IC50;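 further: viable cell count by CellTiter-Glo 2.0 luminescence after 5 days of culture at 37 °C, growth expressed relative to DMSO-only wells as 100%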
Experimental: (§1) Under the following conditions, an in vitro cell-growth inhibition test was performed with respect to HEL cells (human acute myelocytic leukemia cell lines), NCI-H1417 cells (human small-cell lung cancer cell lines), and NCI-H146 cells (human small-cell lung cancer cell lines).
(§2) The cells with the compound of the present invention or with dimethylsulfoxide alone were cultured at 37° C. in a 5% carbon-dioxide-containing incubator for 5 days (HEL cells) or 10 days (NCI-H1417 cells and NCI-H146 cells). After culture, the plate was allowed to stand at room temperature for 30 minutes, and 100 μL of the supernatant was removed from each well to leave 100 μL of the cell culture solution. To each well containing the remaining 100 μL of the cell culture solution, the same amount of CellTiter-Glo 2.0 Assay (Promega, Cat #: G9242) was added. The microplate was shaken with a plate mixer for 1 minute and then allowed to stand in a dark place for 10 minutes. Thereafter, the luminescence intensity of viable cells in each well was measured using a microplate reader (PerkinElmer, EnSpire). […] Cell growth rate (%)=T/C×100 T: The luminescence intensity in a well to which the compound of the present invention was added (count per second) C: The luminescence intensity in a well to which dimethylsulfoxide alone was added (count per second)

[2] = system: NCI-H146 cells (human small-cell lung cancer cell lines); assay: Cell-growth inhibition test: NCI-H146 cells; assay type: cell-based; conditions: read-out: Cell-Growth Inhibition Test: NCI-H146 Cells IC50
In short: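 NCI-H146 small-cell lung cancer cells were cultured with compound or DMSO for 10 days at 37°C, 5% CO2. Viability read by CellTiter-Glo luminescence; growth rate (%) = treated/DMSO luminescence × 100.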

[3] = system: NCI-H1417 cells (human small-cell lung cancer cell lines); conditions: read-out: Cell-Growth Inhibition Test: NCI-H1417 Cells IC50;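 further: growth of NCI-H1417 cells over 10 days at 37 °C, read as viable-cell luminescence by CellTiter-Glo 2.0, expressed as % of DMSO-only control wells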
[4] = system: NCI-H1417 cells (human small-cell lung cancer cell lines); assay: cells; conditions: NCI-H1417, read-out: Cell-Growth Inhibition Test: NCI-H1417 Cells IC50 (nM);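 further: growth of NCI-H1417 cells over 10 days at 37 °C, read as viable-cell luminescence by CellTiter-Glo 2.0, expressed as % of DMSO-only control wells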
[5] = target: T1, human LSD1 protein (Homo sapiens, UniProt O60341); assay: Measurement of LSD1 inhibitory activity (in vitro); assay type: biochemical
T1 construct: purchased Abcam ab80379
Experimental: To measure the inhibitory activity, first, the compound of the present invention was serially diluted in dimethylsulfoxide (DMSO). Sequentially, the solution of the compound of the present invention in DMSO (final concentration of DMSO: 5%) and human LSD1 protein (Abcam, ab80379) were added to a reaction buffer (25 mM Tris-HCl (pH 7.5), 50 mM KCl, 2 mM CHAPS, 1 mM DTT, 0.02% BSA). The mixture was preincubated at 25° C. for 30 minutes. […] Tranylcypromine (final concentration: 3 mM) was then added thereto to terminate the reaction.

[6] = system: HEL cells (human acute myelocytic leukemia cell lines); assay: cells; conditions: read-out: Cell-Growth Inhibition Test: HEL Cells IC50 (nM);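 further: viable cell count by CellTiter-Glo 2.0 luminescence after 5 days of culture at 37 °C, growth expressed relative to DMSO-only wells as 100%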
Experimental: as §1, §2

Compound | IC50 [1] | IC50 ([2]; NCI-H146 cells) | IC50 [3] | IC50 [4] | IC50 ([2]; Homo sapiens, NCI-H146) | IC50 [5] | IC50 [6] | IC50 ([5]; human LSD1 protein, H3K4 (Me1)-biotin-labeled peptide 200 nM, preincubated 30 minutes, read-out: LSD1 inhibitory activity IC50)
2′-(6,7-difluoro-1-(2-hydroxy-2-methylpropyl)-1H-indol-5-yl)-3-fluoro-5′-(2,7-diazaspiro[3.4]octane-6-carbonyl)-[1,1′-biphenyl]-4-carbonitrile [Example 200] | 3.72 nM | 2.31 nM | 1.23 nM |  |  |  |  | 
CC(C)(O)Cn1ncc2cc(-c3ccc(CN4[C@@H]5CC[C@H]4C[C@@H](N)C5)cc3-c3ccc(C#N)c(F)c3)c(F)cc21 [Example 299, 5′-((3-endo)-amino-8-azabicyclo[3.2.1]octan-8-yl)methyl)-3-fluoro-2′-(6-fluoro-1-(2-hydroxy-2-methylpropyl)-1H-indazol-5-yl)-[1,1′-biphenyl]-4-carbonitrile dihydrochloride] |  |  |  | 0.949 nM | < 1.37 nM | 0.2 nM | 0.43 nM | 
3-fluoro-2′-(6-fluoro-1-(2-hydroxy-2-methylpropyl)-1H-indazol-5-yl)-5′-(2,7-diazaspiro[3.4]octane-6-carbonyl)-[1,1′-biphenyl]-4-carbonitrile [Example 199] | 22 nM | 5.45 nM | 4.55 nM |  |  |  |  | 
Cc1noc2cc(-c3ccc(C(=O)N4[C@@H]5CC[C@H]4C[C@@H](N)C5)cc3-c3ccc(C#N)c(F)c3)c(F)cc12 [Example 179, 5′-((3-endo)-3-amino-8-azabicyclo[3.2.1]octane-8-carbonyl)-3-fluoro-2′-(5-fluoro-3-methylbenzo[d]isoxazol-6-yl)-[1,1′-biphenyl]-4-carbonitrile] | 1.52 nM | 1.05 nM | 3.36 nM |  |  |  |  | 
CC(C)(O)Cn1ncc2cc(-c3ccc(CN4CC5CNCC5C4)cc3-c3ccc(C#N)c(F)c3)c(F)cc21 (stereo not shown) [Example 297, 3-fluoro-2′-(6-fluoro-1-(2-hydroxy-2-methylpropyl)-1H-indazol-5-yl)-5′-((hexahydropyrrolo[3,4-c]pyrrol-2(1H)-yl)methyl)-[1,1′-biphenyl]-4-carbonitrile dihydrochloride] |  |  |  | 3.8 nM | 8.26 nM |  | 2.68 nM | 0.4 nM
Cc1ccc(-c2ccc(CN3[C@H]4CC[C@@H]3[C@H](N)C4)cc2-c2ccc([N+](=O)[O-])cc2)cc1 (single isomer, unassigned) [Example 296, dihydrochloride] | 5.83 nM |  | 37.6 nM |  |  |  |  | 
Cc1c(F)c(-c2ccc(C(=O)N3[C@@H]4CC[C@H]3[C@@H](N)C4)cc2-c2ccc(C#N)c(F)c2)cc2nnn(CC3(O)CCC3)c12 (single isomer, unassigned) [Example 270] | 0.26 nM | 0.37 nM | 0.18 nM |  |  |  |  | 

Reference: US11479563B2, “Biphenyl compound or salt thereof” (TAIHO PHARMACEUTICAL CO., LTD., priority 2017, dated 2022)
